From ChEMBL document CHEMBL6071146, “Synthesis and identification of a selective FGFR2 degrader with potent antiproliferative effects in gastric cancer” (Eur J Med Chem, 2024)

Legend:
SNU-16 = assay: Antiproliferative activity against human SNU-16 cells incubated for 72 hrs by MTT assay; conditions: SNU-16, 72 h
[1] = Antiproliferative activity against human KATO III cells incubated for 72 hrs by MTT assay

## COc1cc(OC)cc(N(CCNC(C)C)c2ccc3ncc(-c4cnn(CCC(=O)NCCNc5cccc6c5C(=O)N(C5CCC(=O)NC5=O)C6=O)c4)nc3c2)c1 (stereo not drawn)
SNU-16
  IC50: 153 nM
[1]
  IC50: 701 nM

## COc1cc(OC)cc(N(CCNC(C)C)c2ccc3ncc(-c4cnn(CCOCCOCCOCCOCC(=O)NCCNc5cccc6c5C(=O)N(C5CCC(=O)NC5=O)C6=O)c4)nc3c2)c1 (stereo not drawn)
SNU-16
  IC50: 10 nM
[1]
  IC50: 158 nM

## COc1cc(OC)cc(N(CCNC(C)C)c2ccc3ncc(-c4cnn(CCCCCC(=O)NCC(=O)NCCNc5cccc6c5C(=O)N(C5CCC(=O)NC5=O)C6=O)c4)nc3c2)c1 (stereo not drawn)
SNU-16
  IC50: 1 nM
[1]
  IC50: 595 nM

## COc1cc(OC)cc(N(CCNC(C)C)c2ccc3ncc(-c4cnn(CCCCCCCC(=O)NCCNc5cccc6c5C(=O)N(C5CCC(=O)NC5=O)C6=O)c4)nc3c2)c1 (stereo not drawn)
SNU-16
  IC50: < 0.17 nM
[1]
  IC50: < 0.17 nM
